From PMC7031696 (Cell chemical biology, 2019)
Like-named read-outs stand apart in the source and are kept apart here.

Key:
[1] = system: Plasmodium falciparum 3D7-A10 parasites; assay: Stage specificity assay (8-h exposure of synchronized stages, IC50^8h); assay type: cell-based; conditions: for IC50: Plasmodium falciparum
[2] = system: asynchronous 3D7-A10 parasite cultures; assay: Standard 72-h exposure asexual blood stage susceptibility assay (IC50^72h); assay type: cell-based, Plasmodium falciparum; conditions: Plasmodium falciparum, 3D7, 72 h, read-out: Overall (72hr assay) Mean IC50 (IC50^72h)
[3] = system: 3D7-MR4 trophozoite parasite-infected RBCs; assay: Metabolomic profiling (hydrophilic metabolite changes, UHPLC-MS); assay type: cell-based, Plasmodium falciparum

## CN(C(=O)c1cn2c(-c3ccc(C(F)(F)F)cc3)cnc2cn1)c1ccc(C#N)cc1 [KAI407, reference compound]
[1]; 3D7-A10
  Ratio lowest IC50 8hr/IC50 72hr: 3.9
[1]; 8-h exposures
  overall activity profile (stages on which active): activity against only schizonts
[1]; 3D7, read-out: Early rings Mean IC50, shift 2, 8-h exposure 0–8 hr, line 'shift 2'
  IC50: 16.3 µM
[1]; 3D7, read-out: Early trophozoites Mean IC50, shift 2, 8-h exposure 16–24 hr, line 'shift 2' of biphasic dose response
  IC50: 5.14 µM
[1]; 3D7, read-out: Late rings Mean IC50, shift 2, 8-h exposure 8–16 hr, line 'shift 2'
  IC50: 14 µM
[1]; 3D7, read-out: Late trophozoites Mean IC50, shift 1, 8-h exposure 24–32 hr, line 'shift 1' of biphasic dose response
  IC50: 0.161 µM
[1]; 3D7, read-out: Late trophozoites Mean IC50, shift 2, 8-h exposure 24–32 hr, line 'shift 2' of biphasic dose response
  IC50: 13.4 µM
[1]; 3D7, read-out: Schizonts Mean IC50, shift 2, 8-h exposure 32–40 hr, line 'shift 2'
  IC50: 0.0462 µM
[1]; period when the parasite was most susceptible (lowest IC50^8h)
  Stage of peak activity (Figure 6): schizonts
[2]
  IC50: 0.0118 µM
[3]; metabolite 3-phosphoglycerate, log2 fold change
  Log2(fold changes) 3-phosphoglycerate: -0.5235
[3]; metabolite 4-Pyridoxic acid, log2 fold change
  Log2(fold changes) 4-Pyridoxic acid: 0.0000
[3]; metabolite 4-aminobutyrate, log2 fold change
  Log2(fold changes) 4-aminobutyrate: -0.0697
[3]; metabolite 4-phosphopantetheine, log2 fold change
  Log2(fold changes) 4-phosphopantetheine: -0.3259
[3]; metabolite 4-phosphopantothenate, log2 fold change
  Log2(fold changes) 4-phosphopantothenate: -0.0998
[3]; metabolite 5-aminopentanoic acid, log2 fold change
  Log2(fold changes) 5-aminopentanoic acid: 0.0000
[3]; metabolite 5-methyl-THF, log2 fold change
  Log2(fold changes) 5-methyl-THF: 0.0000
[3]; metabolite 5-phosphoribosyl-1-pyrophosphate, log2 fold change
  Log2(fold changes) 5-phosphoribosyl-1-pyrophosphate: 0.0000
[3]; metabolite 6-phospho-D-gluconate, log2 fold change
  Log2(fold changes) 6-phospho-D-gluconate: -0.0493
[3]; metabolite HVDD
  Log2(fold change) HVDD: 0.0000
[3]; metabolite Hydroxyisocaproic acid
  Log2(fold change) Hydroxyisocaproic acid: 0.0000
[3]; metabolite IDP
  Log2(fold change) IDP: -0.1372
[3]; metabolite IMP
  Log2(fold change) IMP: 0.0398
[3]; metabolite Inositol
  Log2(fold change) Inositol: 0.0000
[3]; metabolite Isopentyl-PP
  Log2(fold change) Isopentyl-PP: 0.0000
[3]; metabolite L-arginino-succinate
  Log2(fold change) L-arginino-succinate: 0.0109
[3]; metabolite LD
  Log2(fold change) LD: 0.0079
[3]; metabolite Myristoyl/tetradecanoyl-CoA
  Log2(fold change) Myristoyl/tetradecanoyl-CoA: 0.0000
[3]; metabolite N-Acetyl-L-alanine
  Log2(fold change) N-Acetyl-L-alanine: 0.0065
[3]; metabolite N-acetyl-L-ornithine
  Log2(fold change) N-acetyl-L-ornithine: -0.3674
[3]; metabolite N-acetyl-glucosamine-1/6-phosphate
  Log2(fold change) N-acetyl-glucosamine-1/6-phosphate: -0.2974
[3]; metabolite N-acetyl-glutamate
  Log2(fold change) N-acetyl-glutamate: -0.1156
[3]; metabolite N-acetyl-glutamine
  Log2(fold change) N-acetyl-glutamine: -0.4039
[3]; metabolite N-carbamoyl-L-aspartate
  Log2(fold change) N-carbamoyl-L-aspartate: -0.0890
[3]; metabolite NAD+
  Log2(fold change) NAD+: -0.0062
[3]; metabolite NADH
  Log2(fold change) NADH: 0.3557
[3]; metabolite NADP+
  Log2(fold change) NADP+: 0.1126
[3]; metabolite NADPH
  Log2(fold change) NADPH: 0.1591
[3]; metabolite O-acetyl-L-serine
  Log2(fold change) O-acetyl-L-serine: 0.0000
[3]; metabolite Octoluse 8/1P
  Log2(fold change) Octoluse 8/1P: -0.0134
[3]; metabolite Octoluse Bisphosphate
  Log2(fold change) Octoluse Bisphosphate: -0.3290
[3]; metabolite PD
  Log2(fold change) PD: -0.6855
[3]; metabolite PE
  Log2(fold change) PE: -0.6905
[3]; metabolite PEE
  Log2(fold change) PEE: -0.7885
[3]; metabolite PEEK
  Log2(fold change) PEEK: -0.8519
[3]; metabolite PVNF
  Log2(fold change) PVNF: -0.9231
[3]; metabolite Pyroglutamic acid
  Log2(fold change) Pyroglutamic acid: -0.1373
[3]; metabolite Pyrophosphate
  Log2(fold change) Pyrophosphate: 0.0000
[3]; metabolite Ribose-5-phosphate
  Log2(fold change) Ribose-5-phosphate: -0.3312
[3]; metabolite S-adenosyl-L-homocysteine
  Log2(fold change) S-adenosyl-L-homocysteine: -0.0194
[3]; metabolite S-adenosyl-L-methioninamine
  Log2(fold change) S-adenosyl-L-methioninamine: 0.0000
[3]; metabolite S-adenosyl-L-methionine
  Log2(fold change) S-adenosyl-L-methionine: 0.0000
[3]; metabolite S-methyl-5'-thioadenosine
  Log2(fold change) S-methyl-5'-thioadenosine: 0.0000
[3]; metabolite SD
  Log2(fold change) SD: -0.4923
[3]; metabolite SDL
  Log2(fold change) SDL: 0.0000
[3]; metabolite SID
  Log2(fold change) SID: 0.0000
[3]; metabolite Sedoheptulose bisphosphate
  Log2(fold change) Sedoheptulose bisphosphate: -0.3584
[3]; metabolite Thiamine pyrophosphate
  Log2(fold change) Thiamine pyrophosphate: 0.0000
[3]; metabolite UDP-D-glucose, log2 fold change
  Log2(fold changes) UDP-D-glucose: 0.1494
[3]; metabolite UDP-D-glucuronate, log2 fold change
  Log2(fold changes) UDP-D-glucuronate: 0.0070
[3]; metabolite UDP-N-acetyl-glucosamine, log2 fold change
  Log2(fold changes) UDP-N-acetyl-glucosamine: 0.1156
[3]; metabolite UDP, log2 fold change
  Log2(fold changes) UDP: 0.2283
[3]; metabolite UMP, log2 fold change
  Log2(fold changes) UMP: 0.2317
[3]; metabolite UTP, log2 fold change
  Log2(fold changes) UTP: 0.2213
[3]; metabolite hydroxyphenylpyruvate
  Log2(fold change) hydroxyphenylpyruvate: 0.0000
[3]; metabolite hydroxyproline/Aminolevulinate
  Log2(fold change) hydroxyproline/Aminolevulinate: -0.0075
[3]; metabolite hypoxanthine
  Log2(fold change) hypoxanthine: 0.1648
[3]; metabolite indole
  Log2(fold change) indole: 0.3490
[3]; metabolite inosine
  Log2(fold change) inosine: -0.0766
[3]; metabolite isoleucine
  Log2(fold change) isoleucine: 0.0000
[3]; metabolite lactate
  Log2(fold change) lactate: -0.2025
[3]; metabolite leucine
  Log2(fold change) leucine: 0.0000
[3]; metabolite lysine
  Log2(fold change) lysine: -0.5734
[3]; metabolite malate
  Log2(fold change) malate: -0.3950
[3]; metabolite maleic acid
  Log2(fold change) maleic acid: -0.3624
[3]; metabolite methionine
  Log2(fold change) methionine: 0.0256
[3]; metabolite myo-inositol
  Log2(fold change) myo-inositol: -0.1977
[3]; metabolite nicotinamide mononucleotide
  Log2(fold change) nicotinamide mononucleotide: 0.0000
[3]; metabolite nicotinate
  Log2(fold change) nicotinate: -0.1013
[3]; metabolite ornithine
  Log2(fold change) ornithine: -0.1781
[3]; metabolite orotate
  Log2(fold change) orotate: 0.2133
[3]; metabolite orotidine-5'-phosphate
  Log2(fold change) orotidine-5'-phosphate: 0.1629
[3]; metabolite oxaloacetate
  Log2(fold change) oxaloacetate: 0.0000
[3]; metabolite p-aminobenzoate
  Log2(fold change) p-aminobenzoate: -0.0216
[3]; metabolite p-hydroxybenzoate
  Log2(fold change) p-hydroxybenzoate: 0.3646
[3]; metabolite pantothenate
  Log2(fold change) pantothenate: -0.2828
[3]; metabolite phenylalanine
  Log2(fold change) phenylalanine: -0.1837
[3]; metabolite phenylpyruvate
  Log2(fold change) phenylpyruvate: 0.0000
[3]; metabolite phosphoenolpyruvate
  Log2(fold change) phosphoenolpyruvate: -0.3146
[3]; metabolite prephenate
  Log2(fold change) prephenate: -0.3616
[3]; metabolite proline
  Log2(fold change) proline: -0.1191
[3]; metabolite pyridoxine
  Log2(fold change) pyridoxine: -0.0925
[3]; metabolite pyruvate
  Log2(fold change) pyruvate: -0.4635
[3]; metabolite riboflavin
  Log2(fold change) riboflavin: 0.1454
[3]; metabolite ribose
  Log2(fold change) ribose: 0.2742
[3]; metabolite ribose-phosphate
  Log2(fold change) ribose-phosphate: 0.0000
[3]; metabolite ribulose-5-phosphate
  Log2(fold change) ribulose-5-phosphate: 0.0000
[3]; metabolite serine
  Log2(fold change) serine: 0.1757
[3]; metabolite sn-glycerol-3-phosphate
  Log2(fold change) sn-glycerol-3-phosphate: -0.3504
[3]; metabolite succinate/Methylmalonic acid
  Log2(fold change) succinate/Methylmalonic acid: -0.0586
[3]; metabolite succinyl-CoA/methylmalonyl-CoA
  Log2(fold change) succinyl-CoA/methylmalonyl-CoA: 0.0000
[3]; metabolite taurine
  Log2(fold change) taurine: 0.0000
[3]; metabolite thiamine
  Log2(fold change) thiamine: -0.0019
[3]; metabolite threonine/homoserine
  Log2(fold change) threonine/homoserine: -0.0036
[3]; metabolite thymidine
  Log2(fold change) thymidine: 0.0000
[3]; metabolite thymine, log2 fold change
  Log2(fold changes) thymine: 0.0000
[3]; metabolite trehalose-6-Phosphate, log2 fold change
  Log2(fold changes) trehalose-6-Phosphate: 0.0000
[3]; metabolite tryptophan, log2 fold change
  Log2(fold changes) tryptophan: -0.0140
[3]; metabolite tyrosine, log2 fold change
  Log2(fold changes) tyrosine: 0.0814
[3]; metabolite uridine, log2 fold change
  Log2(fold changes) uridine: 0.2403
